In brackets after ≈: the same amount, converted by molar mass. Activity calls are given as the source filed them. The calls are words filed in the database; no cut-off is given here.
Columns and labels:
Type in all cases: functional
Candida albicans [1] = assay: Antifungal activity against Candida albicans ATCC 10231 assessed as growth inhibition at 100 ug/mL after 3 to 4 days by agar diffusion method; settings: read-out: DIZ
Pseudomonas aeruginosa [2] = assay: Antibacterial activity against Pseudomonas aeruginosa ATCC 27853 assessed as growth inhibition at 100 ug/mL after 24 hr by cup-plate method; settings: ATCC 27853, 24 h, read-out: DIZ
Pseudomonas aeruginosa [3] = assay: Antibacterial activity against Pseudomonas aeruginosa ATCC 27853 assessed as growth inhibition after 24 hr by broth dilution method
Aspergillus niger [4] = assay: Antifungal activity against Aspergillus niger ATCC 16404 assessed as growth inhibition after 48 hr by broth dilution method
Rhizopus arrhizus [5] = assay: Antifungal activity against Rhizopus oryzae MTCC 262 assessed as growth inhibition after 48 hr by broth dilution method
Staphylococcus aureus [6] = assay: Antibacterial activity against Staphylococcus aureus ATCC 25923 assessed as growth inhibition at 100 ug/mL after 24 hr by cup-plate method; settings: ATCC 25923, 24 h, read-out: DIZ
Candida albicans [7] = assay: Antifungal activity against Candida albicans ATCC 10231 assessed as growth inhibition after 48 hr by broth dilution method
Escherichia coli [8] = assay: Antibacterial activity against Escherichia coli ATCC 25922 assessed as growth inhibition after 24 hr by broth dilution method
Aspergillus niger [9] = assay: Antifungal activity against Aspergillus niger ATCC 16404 assessed as growth inhibition at 100 ug/mL after 3 to 4 days by agar diffusion method; settings: read-out: DIZ
Staphylococcus aureus [10] = assay: Antibacterial activity against Staphylococcus aureus ATCC 25923 assessed as growth inhibition after 24 hr by broth dilution method
Rhizopus arrhizus [11] = assay: Antifungal activity against Rhizopus oryzae MTCC 262 assessed as growth inhibition at 100 ug/mL after 3 to 4 days by agar diffusion method; settings: read-out: DIZ
Escherichia coli [12] = assay: Antibacterial activity against Escherichia coli ATCC 25922 assessed as growth inhibition at 100 ug/mL after 24 hr by cup-plate method; settings: ATCC 25922, 24 h, read-out: DIZ

Row | Compound | zone of inhibition at 100 µg/mL (Candida albicans [1]) [mm] | zone of inhibition at 100 µg/mL (Pseudomonas aeruginosa [2]) [mm] | MIC (Pseudomonas aeruginosa [3]; ATCC 27853, 24 h) [µg/mL] | MIC (Aspergillus niger [4]) | MIC (Rhizopus arrhizus [5]) | zone of inhibition at 100 µg/mL (Staphylococcus aureus [6]) [mm] | MIC (Candida albicans [7]; ATCC 10231, 48 h) [µg/mL] | MIC (Escherichia coli [8]; ATCC 25922, 24 h) [µg/mL] | zone of inhibition at 100 µg/mL (Aspergillus niger [9]) [mm] | MIC (Staphylococcus aureus [10]; ATCC 25923, 24 h) [µg/mL] | zone of inhibition at 100 µg/mL (Rhizopus arrhizus [11]) [mm] | zone of inhibition at 100 µg/mL (Escherichia coli [12]) [mm] | MIC (Pseudomonas aeruginosa [3]) | MIC (Aspergillus niger [4]; ATCC 16404, 48 h) [µg/mL] | MIC (Rhizopus arrhizus [5]; MTCC 262, 48 h) [µg/mL] | MIC (Escherichia coli [8]) | MIC (Candida albicans [7]) | MIC (Staphylococcus aureus [10])
1 | COc1cc(OC)c(C(=O)/C=C/c2cc(OC)c(OC)c(OC)c2)cc1C(=O)/C=C/c1cc(OC)c(OC)c(OC)c1 | 5 | 5 | > 100 | inactive | inactive | 5 | > 100 | 50 (≈ 86.4 µM) | < 5 | > 100 | < 5 | 10 |  |  |  |  |  | 
2 | COc1cc(OC)c(C(=O)/C=C/c2ccco2)cc1C(=O)/C=C/c1ccco1 | 10 | < 5 |  |  |  | 10 | 50 (≈ 132 µM) |  | 10 | 50 (≈ 132 µM) | 5 | < 5 | inactive | 50 (≈ 132 µM) | > 100 | inactive |  | 
3 | O=C(O)c1cn(C2CC2)c2cc(N3CCNCC3)c(F)cc2c1=O [CIPROFLOXACIN] |  | > 20 |  |  |  | > 20 |  |  |  |  |  | > 20 |  |  |  |  |  | 
4 | O=c1cc(-c2ccco2)oc2cc3oc(-c4ccco4)cc(=O)c3cc12 | 15 | 15 | 12.5 (≈ 36.1 µM) |  |  | 15 | 12.5 (≈ 36.1 µM) | 25 (≈ 72.2 µM) | 10 | 25 (≈ 72.2 µM) | 5 | 15 |  | 50 (≈ 144 µM) | > 100 |  |  | 
5 | COc1cc(/C=C/C(=O)c2cc(C(=O)/C=C/c3cc(OC)c(OC)c(OC)c3)c(O)cc2O)cc(OC)c1OC | 15 | 5 | > 100 |  |  | 10 | 25 (≈ 45.4 µM) | 50 (≈ 90.8 µM) | 10 | 50 (≈ 90.8 µM) | 10 | 10 |  | 50 (≈ 90.8 µM) | 50 (≈ 90.8 µM) |  |  | 
6 | COc1ccc(/C=C/C(=O)c2cc(C(=O)/C=C/c3ccc(OC)c(OC)c3)c(OC)cc2OC)cc1OC | 5 | < 5 |  |  | inactive | 5 | > 100 | 50 (≈ 96.4 µM) | 5 | > 100 | < 5 | 10 | inactive | > 100 |  |  |  | 
7 | O=c1cc(-c2ccc(Cl)cc2)oc2cc3oc(-c4ccc(Cl)cc4)cc(=O)c3cc12 | 15 | 15 | 25 (≈ 57.4 µM) |  |  | 15 | 12.5 (≈ 28.7 µM) | 25 (≈ 57.4 µM) | 10 | 12.5 (≈ 28.7 µM) | 15 | 15 |  | 50 (≈ 115 µM) | 25 (≈ 57.4 µM) |  |  | 
8 | COc1ccccc1C(=O)Oc1cc(OC(=O)c2ccccc2OC)c(C(C)=O)cc1C(C)=O | < 5 | 5 | > 100 |  | inactive | < 5 |  |  | 5 |  | < 5 | < 5 |  | > 100 |  | inactive | inactive | inactive
9 | O=C(/C=C/c1ccc(Cl)cc1)c1cc(C(=O)/C=C/c2ccc(Cl)cc2)c(O)cc1O | 10 | 15 | 25 (≈ 56.9 µM) |  |  | 10 | 50 (≈ 114 µM) | 50 (≈ 114 µM) | 10 | 50 (≈ 114 µM) | 10 | 10 |  | 50 (≈ 114 µM) | 50 (≈ 114 µM) |  |  | 
10 | Cc1ccccc1-c1cc(=O)c2cc3c(=O)cc(-c4ccccc4C)oc3cc2o1 | 10 | 10 | 50 (≈ 127 µM) |  |  | 10 | 50 (≈ 127 µM) | > 100 | 5 | 50 (≈ 127 µM) | 5 | 5 |  | > 100 | > 100 |  |  | 
11 | CC(=O)c1cc(C(C)=O)c(OC(=O)c2cccc([N+](=O)[O-])c2)cc1OC(=O)c1cccc([N+](=O)[O-])c1 | 5 | < 5 |  | inactive | inactive | 5 | > 100 |  | < 5 | > 100 | < 5 | < 5 | inactive |  |  | inactive |  | 
12 | O=c1c(O)c(-c2ccc(O)c(O)c2)oc2cc(O)cc(O)c12 [QUERCETIN] |  |  |  |  |  |  | > 100 | > 100 |  | > 100 |  |  |  |  |  |  |  | 
13 | CCN(CC)c1ccc(/C=C/C(=O)c2cc(C(=O)/C=C/c3ccc(N(CC)CC)cc3)c(OC)cc2OC)cc1 | < 5 | 5 | > 100 |  | inactive | < 5 |  |  | 5 |  | < 5 | < 5 |  | > 100 |  | inactive | inactive | inactive
14 | COc1cccc(/C=C/C(=O)c2cc(C(=O)/C=C/c3cccc(OC)c3)c(OC)cc2OC)c1 | 5 | < 5 |  | inactive | inactive | < 5 | > 100 | > 100 | < 5 |  | < 5 | 5 | inactive |  |  |  |  | inactive
15 | O=c1cc(-c2cccc(Cl)c2)oc2cc3oc(-c4cccc(Cl)c4)cc(=O)c3cc12 | 10 | 15 | 25 (≈ 57.4 µM) |  |  | 15 | 50 (≈ 115 µM) | 50 (≈ 115 µM) | 15 | 25 (≈ 57.4 µM) | 10 | 10 |  | 25 (≈ 57.4 µM) | 50 (≈ 115 µM) |  |  | 
16 | COC1=CC(=O)C[C@@H](C)[C@]12Oc1c(Cl)c(OC)cc(OC)c1C2=O [GRISEOFULVIN] | > 20 |  |  |  |  |  | 6.25 (≈ 17.7 µM) |  | > 20 |  | > 20 |  |  | 6.25 (≈ 17.7 µM) | 6.25 (≈ 17.7 µM) |  |  | 

From ChEMBL document CHEMBL3046640, “Synthesis and antimicrobial activity of bischalcone derivatives” (2013)
